The values that follow come from patent US11040976B2, “Substrate selective inhibitors of insulin-degrading enzyme (IDE) and uses thereof” (President and Fellows of Harvard College, priority 2015, dated 2021).

Broadly, the IC50 is the concentration needed to halve the response being measured.

Test [1] deals with T1, recombinant human IDE42-1019 (Homo sapiens, UniProt P14735).
T1 construct: recombinant human IDE42-1019 (R&D Systems); purchased R&D Systems
T1 sequence (P14735 42-1019): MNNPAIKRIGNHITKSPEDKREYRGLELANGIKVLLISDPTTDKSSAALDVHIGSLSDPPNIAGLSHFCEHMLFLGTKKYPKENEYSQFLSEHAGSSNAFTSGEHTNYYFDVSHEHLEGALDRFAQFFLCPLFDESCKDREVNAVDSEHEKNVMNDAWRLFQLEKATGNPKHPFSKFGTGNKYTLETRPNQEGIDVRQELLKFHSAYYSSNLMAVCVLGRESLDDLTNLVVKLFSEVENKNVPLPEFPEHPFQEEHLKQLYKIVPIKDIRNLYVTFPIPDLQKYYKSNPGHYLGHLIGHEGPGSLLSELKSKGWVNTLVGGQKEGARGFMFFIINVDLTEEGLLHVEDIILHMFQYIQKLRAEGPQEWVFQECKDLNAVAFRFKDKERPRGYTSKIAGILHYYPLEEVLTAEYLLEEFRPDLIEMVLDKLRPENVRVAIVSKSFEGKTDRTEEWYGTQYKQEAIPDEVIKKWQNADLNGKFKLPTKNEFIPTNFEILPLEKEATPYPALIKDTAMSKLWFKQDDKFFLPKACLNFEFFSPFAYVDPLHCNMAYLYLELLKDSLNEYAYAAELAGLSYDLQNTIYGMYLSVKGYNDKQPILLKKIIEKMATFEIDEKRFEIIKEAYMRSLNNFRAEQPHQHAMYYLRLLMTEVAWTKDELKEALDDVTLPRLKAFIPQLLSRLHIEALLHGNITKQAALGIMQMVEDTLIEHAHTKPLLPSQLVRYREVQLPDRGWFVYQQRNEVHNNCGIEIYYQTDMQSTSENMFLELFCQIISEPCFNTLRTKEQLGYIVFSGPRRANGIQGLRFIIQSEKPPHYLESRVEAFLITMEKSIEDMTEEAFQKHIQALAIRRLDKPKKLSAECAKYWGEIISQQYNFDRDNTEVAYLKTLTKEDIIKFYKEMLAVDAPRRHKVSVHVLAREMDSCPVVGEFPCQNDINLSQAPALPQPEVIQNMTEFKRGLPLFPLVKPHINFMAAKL
Description: Protease assay with fluorogenic peptide substrate Mca-[…](Dnp)-OH. Type of test: biochemical. As to conditions: for IC50: fluorogenic peptide Mca-RPPGFSAFK(Dnp)-OH, apparent IC50 for compounds with submaximal inhibition, read-out: IC50 (μM) Proteolysis.

Test [2] has as its target T2, Human N-His6-IDE42-1019 (E. coli expressed) (Homo sapiens, UniProt P14735).
T2 construct: Human N-His6-IDE42-1019 (E. coli expressed); made in house; host or cells: E. coli (Rosetta 2 (DE3) pLysS, plasmid pTrcHis-A)
T2 sequence (P14735 42-1019): T1 sequence (P14735 42-1019)
The test is described as follows: Fluorescence anisotropy high-throughput screening assay (displacement of probe FL-6b). As to conditions: final compound concentration 20 μM (6bK control 1 μM); values without asterisk. Type of test: binding. In outline:
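Compounds at 20 μM final were added to 0.5 μM enzyme with fluorescein-labelled macrocycle probe ([…]) in 50 mM Tris pH 8.0, 1 M NaCl, 25 °C. Anisotropy (ex 492/em 523 nm) was read after 30 min in duplicate. Z-scores were calculated against plate DMSO controls.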
A general note: Fluorescence polarisation rises when a labelled molecule tumbles more slowly, as on binding a larger partner.

For `NCCCC[C@@H]1NC(=O)/C=C/C(=O)N[C@H](C(N)=O)CCCCNC(=O)[C@@H](Cc2ccc(C(=O)c3ccccc3)cc2)NC(=O)[C@H](CC2CCCCC2)NC1=O` [6bK, reference compound], in test [1], the IC50 was found to be 0.05 µM. Further, the Emax in test [1] (read-out: Imax (%) Proteolysis (inhibition maximum), fluorogenic peptide Mca-RPPGFSAFK(Dnp)-OH, plateau at high inhibitor concentration) is 100%. Moreover, the “Average Z-score (Fluorescence anisotropy)” value in test [2] is −24.52.
On to `Cc1cccc(-c2ccc([C@@H]3[C@@H](CO)N4CCCCN(S(=O)(=O)c5ccccc5C)C[C@@H]34)cc2)c1` [compound 297], for which the IC50 in test [1] came to 0.25 µM. In test [2], the “Average Z-score (Fluorescence anisotropy)” value was −20.26.
